Test in all cases: NCI tumour cell line growth inhibition, 48 h
For test [1], the system named is OVCAR-4 ovarian.
For test [2], the system named is SF-295 CNS.
Test [3] has as its system SF-539 CNS.
The subject of test [4] is SN12C renal.
Test [5] concerns HCT-116 colon.
For test [6], the system named is OVCAR-8 ovarian.
The subject of test [7] is NCI/ADR-RES ovarian.
The subject of test [8] is SK-MEL-2 melanoma.
The test system of test [9] is ACHN renal.
In test [10] the test system is SK-MEL-28 melanoma.
Test [11] has as its system DU-145 prostate.
For test [12], the system named is 786-0 renal.
The subject of test [13] is MALME-3M melanoma.

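Cells were grown in 96-well plates and exposed to each compound for 48 hours at five concentrations; endpoints were interpolated linearly between bracketing concentrations, or set to the highest concentration if not reached. At the GI50, growth is halved. TGI is the concentration that stops growth completely.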 Where a SMILES comes first, the peptide text is derived from it. Side-chain parts run from the residue outwards. The star is where a group is joined. Cbz = O=C(OCc1ccccc1)*; Boc = CC(C)(C)OC(=O)*

Regarding `CCCCCCCCCCCCCCCCCCNC(=S)/N=C/c1c(O)cc(C)oc1=O`, the TGI is 80 µM in test [1]; 64.7 µM in [2]; 62.3 µM in test [3]; above 100 µM in [4]; above 100 µM in [5]; 63.4 µM in test [6]. Also, the TGI is above 100 µM in test [7]; 52.1 µM in test [8]; 65.4 µM in test [9]; above 100 µM in test [10]; above 100 µM in test [11]; above 100 µM in test [12].

In the case of `Cc1cc(C)c(N)c(C)c1N`, the TGI in test [2], in [3], in [4], in [5], in [6] and in [8] was above 100 µM throughout. The TGI in test [9], in test [13], in test [10] and in test [12] was above 100 µM throughout.

Consider `CCOC(=O)CC(=Nc1cc(C)on1)N(CC)CC`, for which the TGI in test [3], in test [4], in test [5], in [6], in test [8] and in test [9] was above 100 µM each time. Further, the TGI in [13], in [10] and in test [12] was above 100 µM in each case.

On to `[N-]=[N+]=NC(c1cn(C2CC(O)C(CO)O2)c(=O)[nH]c1=O)C(I)I` (centres undefined), for which the TGI in test [1], in [2], in test [3], in test [4], in test [5] and in test [6] was above 100 µM throughout. Also, the TGI in test [8], in test [9], in test [13], in test [10] and in test [12] was above 100 µM each time.

In the case of `C[n+]1c(-c2ccc(/C=N/Nc3n[nH]c(=S)n3N/N=C/c3ccc(-c4cn5ccccc5[n+]4C)cc3)cc2)cn2ccccc21`, the TGI in test [1], in [2], in test [3], in test [4], in [5] and in test [6] was above 100 µM each time. In addition, the TGI in [7], in [9], in test [10] and in test [12] was above 100 µM in each case.

With `O=C(/C=C\c1ccc(OCCCCCC[P+](c2ccccc2)(c2ccccc2)c2ccccc2)cc1)c1ccc2c(c1)OCCO2`, the GI50 was 0.415 µM in test [1]; 1.78 µM in test [2]; 4.31 µM in test [7]; 1.41 µM in test [8]; 1.79 µM in [9]; 1.21 µM in test [11]. Moreover, the TGI is 3.42 µM in test [1]; 3.46 µM in test [2]; above 100 µM in [7]; 3.9 µM in [8]; 3.29 µM in test [9]; 2.6 µM in [11].

In the case of `CC(Nc1cc(=O)n(C)c(=O)[nH]1)c1ccccc1` (centres undefined), the TGI in [1], in test [2], in test [3], in [4], in test [5] and in test [6] was above 100 µM in each case. Also, the TGI in test [7], in test [8], in test [9], in [10], in test [11] and in test [12] was above 100 µM in each case.

`C=CC[C@@]1(C#N)C[C@H](C[C@]2(C#N)C[C@H](CCl)OC(C)(C)O2)OC(C)(C)O1`: the TGI in [1], in [2], in test [3], in test [4], in test [5] and in test [6] was above 100 µM throughout. The TGI in [8], in [9], in test [13], in test [10] and in [12] was above 100 µM throughout.

For the compound `Cc1ccc(C(=O)NC(C)C)cc1N=NN(C)C`, the TGI in test [1], in test [2], in test [3], in [4], in test [5] and in [6] was above 100 µM throughout. Besides, the TGI in test [8], in test [9], in [10] and in test [12] was above 100 µM in each case.

Turning to `S=C1NC2=C(COC/C2=C\c2ccccc2Cl)C(c2ccccc2Cl)N1` (centres undefined), the TGI in [1] is above 100 µM; in [2] it was above 100 µM; in test [3], above 100 µM; in [4] it was above 100 µM; in [5], 80.6 µM; in test [6] it was above 100 µM. Also, the TGI in test [7] was above 100 µM; in test [8], 67.1 µM; in test [9] it was above 100 µM; in test [11] it was above 100 µM; in test [12] it was above 100 µM.

In the case of `O=C(Cc1ccccc1)NN1C(=O)C(Cl)C1c1ccccc1` (centres undefined), the TGI in test [1], in test [2], in test [4], in test [5], in test [6] and in test [8] was above 100 µM each time. Further, the TGI in test [9], in [13], in [10] and in test [12] was above 100 µM each time.

Turning to `COC(=O)C1=C2Nc3ccccc3C23CCN2C(O)C4(CC5CC67CCOC6CCN6CCC8(c9cccc(OC)c9N(C4)C58O)C67)C4OCCC4(C1)C23` (centres undefined), the TGI is above 100 µM in test [1]; above 100 µM in test [2]; above 100 µM in test [3]; above 100 µM in [4]; above 100 µM in [5]; 61.3 µM in test [6]. Further, the TGI was above 100 µM in [8]; above 100 µM in test [9]; above 100 µM in test [13]; above 100 µM in [10]; above 100 µM in test [11]; 50.5 µM in test [12].

In the case of `CC[S+](C)c1ccc(-c2c3nc(c(-c4ccc([S+](C)CC)cc4)c4ccc([nH]4)c(-c4ccc([S+](C)CC)cc4)c4nc(c(-c5ccc([S+](C)CC)cc5)c5ccc2[nH]5)C=C4)C=C3)cc1` (centres undefined), the TGI in test [1] is above 100 µM; in test [2], above 100 µM; in test [3], above 100 µM; in [4], 60.4 µM; in test [5], above 100 µM; in test [6], above 100 µM. In addition, the TGI was 77.5 µM in [8]; above 100 µM in [9]; above 100 µM in test [13]; above 100 µM in test [10]; above 100 µM in test [12].

With `CCc1c(-c2coc(CC/C(C)=C/c3ccccc3)n2)oc(OC)c(C)c1=O`, the TGI in test [1] is above 55.5 µM; in [2], above 100 µM; in test [3], above 65 µM; in test [4] it was above 62.2 µM; in test [5] it was above 87.8 µM; in test [6] it was above 100 µM. Further, the TGI in test [8] is above 100 µM; in test [9], above 71.4 µM; in [13], above 100 µM; in [10], above 100 µM; in test [12], above 55.4 µM.

For `CCC(=O)n1c(=O)n(-c2ccc([N+](=O)[O-])cc2)c(=O)n1C(=O)CC`, the TGI in test [1], in test [2], in test [4], in [5], in test [6] and in test [7] was above 100 µM each time. Also, the TGI in test [8], in [9], in test [10], in test [11] and in test [12] was above 100 µM in each case.

Regarding `O=C1O[C@H](COC(=O)c2ccccc2)[C@@H](OC(=O)c2ccccc2)C=C1OC(=O)c1ccccc1`, the TGI in test [1] worked out at 48.7 µM; in test [2], 34.8 µM; in [3], 32.5 µM; in test [4] it was 36.9 µM; in test [5], 32 µM; in test [6], 45.4 µM. Besides, the TGI is 38.8 µM in test [7]; 50.8 µM in [8]; 35.3 µM in test [9]; above 100 µM in [11]; 33.7 µM in test [12].

`CC(C)CC(NC(=O)OCc1ccccc1)C(=O)NCCCCC(NC(=O)C(CCCCNC(=O)C(CC(C)C)NC(=O)OCc1ccccc1)NC(=O)C(CCCCNC(=O)C(CC(C)C)NC(=O)OCc1ccccc1)NC(=O)C(CCCCNC(=O)C(CC(C)C)NC(=O)OCc1ccccc1)NC(=O)OC(C)(C)C)C(=O)O` (centres undefined) (Boc-K([Leu-Cbz])K([Leu-Cbz])K([Leu-Cbz])K([Leu-Cbz])-OH; configuration not given here): the TGI in [1], in test [4], in [5], in test [6], in test [8] and in [9] was above 25 µM in each case. Further, the TGI in test [13], in [10], in [11] and in test [12] was above 25 µM each time.
